Earlier results as cited in article PMC8683664 (International Journal of Pharmaceutics: X, 2021).
In brackets after ≈: the same amount, converted by molar mass. Where two headings read alike, the source gives them in different places.

Key:
SAR-CoV-2 = settings: human airway epithelial (HAE) cells, value in brackets ref Agostini et al., 2018
SARS-CoV-2 [1] = settings: 2020; for EC50 in Calu-3 2B4 cells: value in brackets ref Pruijssers et al.; for EC50: read-out: EC50 in Calu-3 2B4 cells, Calu-3 2B4 cells ref Pruijssers et al.
severe COVID-19 patients = settings: 10-day course, placebo 15 days ref Beigel et al., 2020
SARS-CoV-2 [2] = settings: read-out: EC50 in Calu-3; continuous human lung epithelial cell line (Calu-3), prescribing information of Veklury ref Gilead Sciences, Inc., 2020

N#C[C@@]1(c2ccc3c(N)ncnn23)O[C@H](CO)[C@@H](O)[C@H]1O [GS-441524]
EC50 against SAR-CoV-2 in HAE (SAR-CoV-2): 0.05243 µg/mL (≈ 0.18 µM)
EC50 in Calu-3 2B4 cells (SARS-CoV-2 [1]): 0.1806 µg/mL (≈ 0.62 µM)
EC50 (SARS-CoV-2 [1]): 620 nM

CCC(CC)COC(=O)[C@H](C)N[P@](=O)(OC[C@H]1O[C@@](C#N)(c2ccc3c(N)ncnn23)[C@H](O)[C@@H]1O)Oc1ccccc1 [remdesivir]
EC50 against SAR-CoV-2 in HAE (SAR-CoV-2): 0.04218 µg/mL (≈ 0.07 µM)
recovery time (severe COVID-19 patients): 11 days
EC50 in Calu-3 2B4 cells (SARS-CoV-2 [1]): 0.16873 µg/mL (≈ 0.28 µM)
EC50 (SARS-CoV-2 [1]): 280 nM
EC50 (SARS-CoV-2 [2]): 280 nM
